{
  "source": "paper PMC10997755",
  "about": "“Discovery of a small-molecule inhibitor that traps Polθ on DNA and synergizes with PARP inhibitors” (Nature Communications, 2024)",
  "key": {"[1]": {"biological_target": "T1, recombinant human full-length Polθ (Fl-Polθ) (Homo sapiens, UniProt O75417)", "T1 construct": "recombinant human full-length Polθ (Fl-Polθ); made in house", "T1 sequence (O75417 whole entry)": "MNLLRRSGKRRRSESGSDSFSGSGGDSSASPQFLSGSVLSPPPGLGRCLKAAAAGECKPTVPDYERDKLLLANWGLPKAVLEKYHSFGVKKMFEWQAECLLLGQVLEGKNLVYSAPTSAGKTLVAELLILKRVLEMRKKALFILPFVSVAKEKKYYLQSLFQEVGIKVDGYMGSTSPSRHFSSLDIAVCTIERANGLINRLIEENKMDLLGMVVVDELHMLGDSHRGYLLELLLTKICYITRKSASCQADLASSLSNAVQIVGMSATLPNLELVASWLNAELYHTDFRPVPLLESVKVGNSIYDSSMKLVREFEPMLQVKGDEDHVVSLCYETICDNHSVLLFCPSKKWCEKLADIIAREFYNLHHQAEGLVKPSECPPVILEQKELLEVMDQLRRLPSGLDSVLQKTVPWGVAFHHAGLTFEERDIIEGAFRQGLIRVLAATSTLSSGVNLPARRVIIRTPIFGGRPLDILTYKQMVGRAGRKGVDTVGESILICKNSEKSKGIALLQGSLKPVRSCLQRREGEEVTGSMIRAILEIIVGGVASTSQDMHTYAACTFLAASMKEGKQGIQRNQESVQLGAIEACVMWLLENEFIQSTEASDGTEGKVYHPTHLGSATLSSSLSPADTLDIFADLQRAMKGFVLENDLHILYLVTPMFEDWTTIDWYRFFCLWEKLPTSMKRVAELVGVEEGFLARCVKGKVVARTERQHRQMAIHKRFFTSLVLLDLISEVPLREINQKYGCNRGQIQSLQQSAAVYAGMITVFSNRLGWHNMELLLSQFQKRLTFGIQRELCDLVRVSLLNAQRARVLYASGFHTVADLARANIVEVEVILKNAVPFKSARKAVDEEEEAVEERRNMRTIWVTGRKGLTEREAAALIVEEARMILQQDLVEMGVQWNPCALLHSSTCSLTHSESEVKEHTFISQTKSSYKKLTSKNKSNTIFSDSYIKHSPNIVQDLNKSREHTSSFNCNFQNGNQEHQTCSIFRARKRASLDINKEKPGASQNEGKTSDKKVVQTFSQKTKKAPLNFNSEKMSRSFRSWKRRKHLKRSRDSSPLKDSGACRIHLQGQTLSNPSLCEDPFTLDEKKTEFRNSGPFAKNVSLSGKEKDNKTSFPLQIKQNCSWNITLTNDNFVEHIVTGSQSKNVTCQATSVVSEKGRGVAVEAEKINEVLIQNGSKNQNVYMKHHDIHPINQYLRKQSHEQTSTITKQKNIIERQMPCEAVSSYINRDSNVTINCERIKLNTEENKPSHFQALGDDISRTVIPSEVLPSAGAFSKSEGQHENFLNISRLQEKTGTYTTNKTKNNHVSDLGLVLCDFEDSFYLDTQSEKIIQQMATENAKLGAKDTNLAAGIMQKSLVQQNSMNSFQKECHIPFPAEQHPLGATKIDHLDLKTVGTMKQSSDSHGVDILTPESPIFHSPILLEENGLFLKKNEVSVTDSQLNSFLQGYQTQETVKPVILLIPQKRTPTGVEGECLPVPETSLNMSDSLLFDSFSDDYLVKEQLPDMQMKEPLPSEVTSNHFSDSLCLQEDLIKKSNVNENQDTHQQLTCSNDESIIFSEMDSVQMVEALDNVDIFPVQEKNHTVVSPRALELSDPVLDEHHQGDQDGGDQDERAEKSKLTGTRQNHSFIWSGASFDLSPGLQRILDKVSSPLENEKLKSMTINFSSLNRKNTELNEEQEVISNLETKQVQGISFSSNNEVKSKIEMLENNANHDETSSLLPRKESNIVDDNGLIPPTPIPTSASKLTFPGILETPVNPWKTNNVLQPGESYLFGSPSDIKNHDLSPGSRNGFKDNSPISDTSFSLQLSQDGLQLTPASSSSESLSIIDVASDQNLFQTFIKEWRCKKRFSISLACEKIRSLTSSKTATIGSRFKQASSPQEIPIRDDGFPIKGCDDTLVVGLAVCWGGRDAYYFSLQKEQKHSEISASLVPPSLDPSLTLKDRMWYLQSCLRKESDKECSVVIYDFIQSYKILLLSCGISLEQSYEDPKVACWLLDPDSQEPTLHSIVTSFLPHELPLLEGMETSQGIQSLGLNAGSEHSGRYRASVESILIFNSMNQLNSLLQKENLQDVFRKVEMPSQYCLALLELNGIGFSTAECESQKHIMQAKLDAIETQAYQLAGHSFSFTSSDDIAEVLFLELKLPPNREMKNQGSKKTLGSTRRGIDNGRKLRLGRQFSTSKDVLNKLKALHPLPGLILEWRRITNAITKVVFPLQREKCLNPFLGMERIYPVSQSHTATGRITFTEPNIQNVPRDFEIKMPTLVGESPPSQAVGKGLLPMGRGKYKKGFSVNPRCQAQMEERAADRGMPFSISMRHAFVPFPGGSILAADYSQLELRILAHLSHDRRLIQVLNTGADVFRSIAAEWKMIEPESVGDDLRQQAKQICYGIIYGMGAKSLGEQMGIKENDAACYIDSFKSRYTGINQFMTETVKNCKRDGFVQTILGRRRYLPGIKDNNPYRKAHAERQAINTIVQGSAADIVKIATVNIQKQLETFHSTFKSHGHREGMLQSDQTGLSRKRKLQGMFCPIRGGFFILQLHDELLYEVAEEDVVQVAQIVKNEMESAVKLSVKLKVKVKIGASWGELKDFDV", "experiment": "Fl-Polθ DNA/DNA primer extension", "assay_type": "biochemical", "settings": "0.15-12 µM, gel"}, "[2]": {"experiment": "Metabolic stability in liver microsomes", "assay_type": "in vitro ADME", "settings": "read-out: t1/2 liver microsomes"}, "[3]": {"system": "BRCA2-WT cells", "experiment": "Clonogenic assay (number of colonies counted)", "assay_type": "cell-based", "settings": "three replicates"}, "[4]": {"system": "BRCA2-NULL cells", "experiment": "Clonogenic assay (number of colonies counted)", "assay_type": "cell-based", "settings": "three replicates", "text": "Supplement 41467_2024_46593_MOESM7_ESM.xlsx, sheet \"Supplem 1 b\" | column: BRCA2-NULL"}, "[5]": {"biological_target": "T2, Polκ (Homo sapiens, UniProt Q9UBT6)", "T2 construct": "gift: Dr. Arora (Fox Chase Cancer Center)", "T2 sequence (Q9UBT6 1-870)": "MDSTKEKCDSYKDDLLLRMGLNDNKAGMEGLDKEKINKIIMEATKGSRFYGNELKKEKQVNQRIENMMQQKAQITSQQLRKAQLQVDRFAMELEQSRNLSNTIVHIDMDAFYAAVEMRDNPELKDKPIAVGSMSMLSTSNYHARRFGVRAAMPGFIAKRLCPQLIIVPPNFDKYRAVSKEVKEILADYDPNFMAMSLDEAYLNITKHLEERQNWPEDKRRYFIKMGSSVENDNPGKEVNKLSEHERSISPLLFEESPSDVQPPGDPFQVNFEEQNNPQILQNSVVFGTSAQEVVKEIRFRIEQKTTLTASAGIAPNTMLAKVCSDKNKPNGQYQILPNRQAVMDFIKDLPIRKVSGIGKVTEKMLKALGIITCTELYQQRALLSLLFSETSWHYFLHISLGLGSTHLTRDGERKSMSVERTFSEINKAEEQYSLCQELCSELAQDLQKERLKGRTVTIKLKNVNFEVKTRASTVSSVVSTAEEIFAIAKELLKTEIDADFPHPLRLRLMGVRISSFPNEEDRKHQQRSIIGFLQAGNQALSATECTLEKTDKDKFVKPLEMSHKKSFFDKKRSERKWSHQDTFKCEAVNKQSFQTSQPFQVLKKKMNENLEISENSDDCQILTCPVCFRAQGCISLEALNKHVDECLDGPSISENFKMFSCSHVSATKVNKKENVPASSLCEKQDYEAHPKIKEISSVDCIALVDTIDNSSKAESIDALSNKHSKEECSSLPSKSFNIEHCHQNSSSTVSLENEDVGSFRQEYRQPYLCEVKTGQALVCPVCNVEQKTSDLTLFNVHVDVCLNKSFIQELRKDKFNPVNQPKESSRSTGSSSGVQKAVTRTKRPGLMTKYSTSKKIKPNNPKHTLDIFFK", "experiment": "Primer extension by recombinant Pols (selectivity)", "assay_type": "biochemical"}, "[6]": {"biological_target": "T3, Pol Eta (Homo sapiens, UniProt Q9Y253)", "T3 sequence (Q9Y253 1-713)": "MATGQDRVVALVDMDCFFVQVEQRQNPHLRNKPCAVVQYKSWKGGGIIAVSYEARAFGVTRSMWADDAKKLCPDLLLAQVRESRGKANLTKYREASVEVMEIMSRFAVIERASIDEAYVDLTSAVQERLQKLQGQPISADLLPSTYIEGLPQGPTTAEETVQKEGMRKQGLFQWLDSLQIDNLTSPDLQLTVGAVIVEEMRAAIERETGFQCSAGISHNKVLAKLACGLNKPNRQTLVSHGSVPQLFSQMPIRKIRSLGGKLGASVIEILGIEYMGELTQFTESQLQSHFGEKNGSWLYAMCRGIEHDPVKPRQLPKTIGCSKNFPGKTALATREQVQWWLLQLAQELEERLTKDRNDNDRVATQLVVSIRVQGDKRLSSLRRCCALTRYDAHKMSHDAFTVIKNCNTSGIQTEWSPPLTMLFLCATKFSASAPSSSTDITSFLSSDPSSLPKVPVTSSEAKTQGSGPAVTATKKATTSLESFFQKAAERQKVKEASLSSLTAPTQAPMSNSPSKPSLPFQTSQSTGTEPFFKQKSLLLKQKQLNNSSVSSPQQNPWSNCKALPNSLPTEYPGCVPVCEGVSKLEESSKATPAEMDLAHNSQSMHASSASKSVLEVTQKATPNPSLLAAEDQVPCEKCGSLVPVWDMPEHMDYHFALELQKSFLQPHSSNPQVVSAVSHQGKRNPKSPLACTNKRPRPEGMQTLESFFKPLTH", "experiment": "Primer extension by recombinant Pols (selectivity)", "assay_type": "biochemical"}, "[7]": {"system": "DLD1 BRCA2 -/- cells", "experiment": "γ-H2AX immunofluorescence", "assay_type": "cell-based", "protocol": "(§1) Cells were plated on six well plates with glass-coverslips and treated with RTX-161 day after plating. Four days after treatment, cells were fixed with 4% (v/v) paraformaldehyde for 20 min at 4 °C, washed with PBS, permeabilized with 0.5% (v/v) Triton X for 10 min and blocked with PBS containing 3% BSA. Cells were incubated with primary antibody overnight at 4 °C followed by 3x washes with PBS and then 1 h incubation with secondary antibody. The incubations were performed in the dark in a humidified chamber. After 3x washing in PBS for 3 min, slides were mounted in 20 ul Prolong antifade with DAPI (LifeTechnologies) to counterstain the nuclei. Cells were visualized and imaged using Nikon A1R Confocal microscope at a 63X objective magnification, and images were analyzed using ImageJ software. For quantification, >50 cells were counted for all conditions from three independent experiments. The primary antibody used for IF was rabbit anti-gamma H2AX [p Ser139] antibody (Bethyl Lab #A700-053) 1:500 dilution in 1% BSA in PBS. The secondary antibody was Goat anti-Rabbit IgG (H + L) Secondary Antibody, DyLight 488 (Thermo #35552) 1:2000 dilution in 1% BSA in PBS."}, "[8]": {"system": "DLD1 Parental cells", "experiment": "γ-H2AX immunofluorescence", "assay_type": "cell-based", "settings": "DLD1-BRCA2-WT, 5 microM", "protocol": "as §1"}, "[9]": {"settings": "selectivity panel, Pol named in Supplementary Fig. 1h"}},
  "note": "“And” between values parts separate entries of the source, which are not always exact repeats. Equal values may be shown once. “Also recorded” adds a separate entry of the source.",
  "data": [
    {"smiles": "CN(C(=O)Oc1ccc(C(F)(F)F)cc1C(F)(F)F)c1ccc(F)cc1", "note": "[MC160385]", "values": [
      {"measurement": "inhibition of Fl-Polθ DNA synthesis activity", "setting": "[1]", "result": "inhibits; also recorded: inhibition"},
      {"measurement": "half-life", "setting": "[2]", "result": 6.2, "unit": "min"},
      {"measurement": "number of olonies counted", "setting": "[3]; MC160385 2.5 μM", "result": "84 and 87 and 85"},
      {"measurement": "number of olonies counted", "setting": "[3]; MC160385 5 μM", "result": "82 and 86 and 83"},
      {"measurement": "number of olonies counted", "setting": "[3]; MC160385 10 μM", "result": "80 and 84 and 82"},
      {"measurement": "number of olonies counted", "setting": "[3]; MC160385 20 μM", "result": "79 and 84 and 80"},
      {"measurement": "number of olonies counted", "setting": "[4]; MC160385 2.5 μM", "result": "67 and 60 and 64"},
      {"measurement": "number of olonies counted", "setting": "[4]; MC160385 5 μM", "result": "56 and 64 and 62"},
      {"measurement": "number of olonies counted", "setting": "[4]; MC160385 10 μM", "result": "57 and 62 and 60"},
      {"measurement": "number of olonies counted", "setting": "[4]; MC160385 20 μM", "result": "59 and 56 and 58"}
    ]},
    {"smiles": "CN(C(=O)Oc1c(N2CCN(CCO)C2=O)cc(C(F)(F)F)cc1C(F)(F)F)c1ccc(F)cc1", "note": "[RTx-161]", "values": [
      {"measurement": "% Full Extension", "setting": "[5]; Pol Kappa", "result": 89.30, "unit": "%"},
      {"measurement": "% Inhibition Compared to Control", "setting": "[5]; Pol Kappa", "result": 0.85, "unit": "%"},
      {"measurement": "% Relative Maximum Extension", "setting": "[5]; Pol Kappa", "result": 99.15, "unit": "%"},
      {"measurement": "inhibition of primer extension", "setting": "[5]; [9]", "result": "no inhibition"},
      {"measurement": "% Full Extension", "setting": "[6]; Pol Eta", "result": 78.72, "unit": "%"},
      {"measurement": "% Inhibition Compared to Control", "setting": "[6]; Pol Eta", "result": -2.54, "unit": "%"},
      {"measurement": "% Relative Maximum Extension", "setting": "[6]; Pol Eta", "result": 102.54, "unit": "%"},
      {"measurement": "inhibition of primer extension", "setting": "[6]; [9]", "result": "no inhibition"},
      {"measurement": "Percent of positive nuclei, Average", "setting": "[7]; DLD1- BRCA2-null, 5 microM, Average of Expt 1-3 (DMSO 14.884)", "result": 48.7855, "unit": "%"},
      {"measurement": "Percent of positive nuclei (3 or more than 3 g-H2AX foci)", "setting": "[7]; DLD1- BRCA2-null, 5 microM, single Experiments 1-3", "result": "47.2973% and 43.3071% and 55.7522%"},
      {"measurement": "DNA damage (γ-H2AX phosphorylation)", "setting": "[7]; immunofluorescence and Western blot, versus parental", "result": "selectively caused DNA damage"},
      {"measurement": "Percent of positive nuclei, Average", "setting": "[8]; Average of Expt 1-3 (DMSO 4.28755)", "result": 10.2071, "unit": "%"},
      {"measurement": "Percent of positive nuclei (3 or more than 3 g-H2AX foci)", "setting": "[8]; single Experiments 1-3", "result": "11.5942% and 12.5984% and 6.429%"}
    ]}
  ]
}
